# Data published in patent publication US4521422A, “Aryl and heteroaryl[7-(aryl and heteroaryl)pyrazolo[1,5-a]pyrimidin-3-yl]methanones” (American Cyanamid Company, priority 1984, dated 1985).
# Legend:
# [1] = system: Brain-Specific Receptors of Rats; assay: Inhibition of the binding of 3H-benzodiazepine to brain-specific receptors of rats; parameters: species or system rat (Wistar); conditions: 3H-diazepam 1.5 nM or 3H-flunitrazepam 1.0 nM; rat cortex P2 fraction; test concentration not given
# [2] = system: Clonic Seizures Caused by Pentylenetetrazole in Rats; assay: Protection against clonic seizures caused by pentylenetetrazole in rats; format: in vivo; conditions: Rattus norvegicus, oral or i.p., read-out: % of Rats Protected; for responders at 25 mg/kg: pentylenetetrazole 23 mg/kg i.v. at 30 or 60 min
# Outline: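 Rats (at least 4 per group) given single or graded oral or intraperitoneal doses in starch/PEG/Polysorbate 80 vehicle. After 30 or 60 min, pentylenetetrazole 23 mg/kg i.v. was given, a dose expected to induce clonic seizures in 99% of unprotected rats. Protection from convulsions was scored.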
# [3] = system: Nonconditioned Passive Avoidance in Rats; assay: Nonconditioned passive avoidance (conflict) test in rats; format: in vivo, rat (Wistar); parameters: key: Active: considered active if the number of shocks received by the test group is significantly higher than the control group by the Mann-Witney U test; conditions: oral or i.p.
# Protocol: Another test which has been used to assess anti-anxiety effects is a nonconditioned passive avoidance procedure described by [J. R. Vogel, B. Beer and D. E. Clody, "A Simple and Reliable Conflict Procedure for Testing Anti-Anxiety Agents", Psychopharmacologia, 21, 1-7 (1971)]. A conflict situation is induced in rats by a modification of this method.
# Groups of 6 naive, Wistar strain rats, weighing 200-240 g each were deprived of water for 48 hours and food for 24 hours. The test compounds were administered in single or graded, oral or intraperitoneal doses, suspended in a 2% starch vehicle containing 0.5% v/v polyethylene glycol and one drop of polysorbate 80. Control animals received the vehicle alone. At 30 to 60 minutes each rat was placed in an individual plexiglass chamber. Water was available ad libitum from a tap located in the rear of the chamber. A 0.7 milliampere DC shocking current was established between the stainless steel grid floor and the tap. After 20 licks of non-shocked drinking, a shock was delivered for 2 seconds and then further shocks were delivered on a ratio of one shock for 2 seconds for every 20 licks. This was continued for a total of 3 minutes. The number of shocks taken by each rat during the 3 minute interval was recorded and compared to a control group. […]
# [4] = system: Ability of Rats to Remain on an Inclined Screen; assay: Effect on ability of rats to remain on an inclined screen; format: in vivo; conditions: Rattus norvegicus, 65 min; dose necessary to cause 50% of animals to fall off; oral; 60° screen, 65 min after dosing
# Protocol: The first test measures the effect of representative compounds on the ability of rats to remain on an inclined screen. Groups of at least 6 rats were treated orally with graded doses of test compounds or vehicle and placed on a wire mesh screen (inclined at an angle of 60° from a horizontal level) 65 minutes later. The number of rats falling off the screen within 30 minutes was recorded. The ED50 (dose necessary to cause 50% of the animals tested to fall off) was calculated according to the linear arc-sine transformation method of Finney, D. J. Statistical Methods in Biological Assay, 2nd Ed., Hafner, N. Y., 1964, pp. 454 ff. Compounds were dissolved or suspended in a 2% aqueous starch suspension containing 5% polyethylene glycol 400 and a drop of polysorbate 80, and administered in a constant volume of 5 ml/kg.
# [5] = system: Locomotor Activity in Rats; assay: Effects on locomotor activity in rats; format: in vivo; conditions: Rattus norvegicus, 1 h; dose causing 50% decrease in mean activity counts vs vehicle; oral, 60 min; read-out: MDD50
# Protocol: Groups of 6 rats were treated orally with vehicle (5 ml/kg) or graded doses of the test compounds. Sixty minutes later, individual rats were placed in Actophotometers and locomotor activity was measured for 5 minutes after a brief (30 sec.) habituation period. Motor Activity Counts (number of crossings of the photo cells) were recorded for each rat, and mean activity counts were calculated for each treatment group. The dose causing a 50% decrease in mean activity counts compared with the vehicle group (MDD50) was calculated from a linear regression equation.
# [6] = system: Ethanol Induced Narcosis in Rats; assay: Effects on the duration of ethanol induced narcosis in rats; format: in vivo; conditions: Rattus norvegicus; lowest dose causing significant (p≤0.05) increase in duration of narcosis; oral, 60 min before 3.2 g/kg i.p. ethanol; read-out: MED
# Protocol: The sedative-hypnotic properties of the novel compounds of the instant invention have been established by their effect on the duration of ethanol induced narcosis in rats as a measurement of sedation. Groups of at least 8 rats were administered graded oral doses of the test compounds or vehicle 60 minutes prior to intraperitoneal treatment with 3.2 g/kg ethanol. Rats were then observed continuously for 180 minutes for the incidence and duration of ethanol induced narcosis. […] The duration of narcosis was the total time the rat remained in a supine position. The MED [lowest dose necessary to cause a significant (p≤0.05, two-tailed Student's t test) increase in the duration of ethanol induced narcosis in rats] of representative compounds of this invention are shown in Table IV. Test compounds were dissolved or suspended in a 2% aqueous starch suspension containing 5% polyethyleneglycol 400 and a drop of Tween®80; ethanol (95%) was adjusted to final concentration (V:V) with 0.85% saline. All treatments were administered in a constant volume of 5 ml/kg.
Compound,% Inhibition [1],responders at 25 mg/kg [2],Result (nonconditioned passive avoidance) ([3]; dose 25.0 mg/kg),"responders at 12.5 mg/kg ([2]; dose 12.5 mg/kg, pentylenetetrazole 23 mg/kg i.v.)",ED50 [4],ED50 [5],Result (nonconditioned passive avoidance) ([3]; dose 12.5 mg/kg),minimal effective dose [6]
"O=C(c1ccco1)c1cnn2c(-c3ccncc3)ccnc12 [2-furanyl[7-(4-pyridinyl)pyrazolo[1,5-a]pyrimidin-3-yl]methanone]",19%,25%,Active,–,–,–,–,–
"O=C(c1cccc(C(F)(F)F)c1)c1cnn2c(-c3cccnc3)ccnc12 [[7-(3-pyridinyl)pyrazolo[1,5-a]pyrimidin-3-yl][3-(trifluoromethyl)phenyl]methanone]",38%,–,Active,–,–,–,–,–
"O=C(c1ccc(Cl)cc1)c1cnn2c(-c3cccc(C(F)(F)F)c3)ccnc12 [(4-chlorophenyl)[7-[3-(trifluoromethyl)phenyl]pyrazolo[1,5-a]pyrimidin-3-yl]methanone]",81%,–,Active,–,–,–,–,–
"O=C(c1ccc(F)cc1)c1cnn2c(-c3cccc(C(F)(F)F)c3)ccnc12 [(4-fluorophenyl)[7-[3-(trifluoromethyl)phenyl]pyrazolo[1,5-a]pyrimidin-3-yl]methanone]",50%,–,Active,38%,–,–,–,–
"O=C(c1ccccn1)c1cnn2c(-c3cccc(C(F)(F)F)c3)ccnc12 [2-pyridinyl[7-[3-(trifluoromethyl)phenyl]pyrazolo[1,5-a]pyrimidin-3-yl]methanone]",93%,100%,Active,–,6.9 mg/kg,7 mg/kg,–,–
"COc1ccc(C(=O)c2cnn3c(-c4cccnc4)ccnc23)cc1 [(4-Methoxyphenyl)[7-(3-pyridinyl)pyrazolo[1,5-a]pyrimidin-3-yl]methanone]",–,100%,–,–,11.9 mg/kg,10.5 mg/kg,Active,–
"Cc1cccc(C(=O)c2cnn3c(-c4cccnc4)ccnc23)c1 [(3-methylphenyl)[7-(3-pyridinyl)pyrazolo[1,5-a]pyrimidin-3-yl]methanone]",70%,100%,Active,–,–,–,–,–
"COc1ccc(C(=O)c2cnn3c(-c4cccnc4)ccnc23)cc1OC [(3,4-dimethoxyphenyl)[7-(3-pyridinyl)pyrazolo[1,5-a]pyrimidin-3-yl]methanone]",75%,87%,Active,–,–,–,–,–
"O=C(c1ccccc1)c1cnn2c(-c3cc[n+]([O-])cc3)ccnc12 [Phenyl[7-(4-pyridinyl)pyrazolo[1,5-a]pyrimidin-3-yl]methanone, pyridine-1-oxide]",39%,100%,Active,–,–,–,–,–
"O=C(c1ccco1)c1cnn2c(-c3cccc(C(F)(F)F)c3)ccnc12 [2-furanyl[7-[3-(trifluoromethyl)phenyl]pyrazolo[1,5-a]pyrimidin-3-yl]methanone]",98%,100%,Active,–,–,–,–,32 mg/kg
"O=C(c1ccccc1)c1cnn2c(-c3cccc(C(F)(F)F)c3)ccnc12 [phenyl[7-[3-(trifluoromethyl)phenyl]pyrazolo[1,5-a]pyrimidin-3-yl]methanone]",93%,100%,Active,–,5.5 mg/kg,5.5 mg/kg,–,–
"O=C(c1ccoc1)c1cnn2c(-c3cccnc3)ccnc12 [3-furanyl[7-(3-pyridinyl)pyrazolo[1,5-a]pyrimidin-3-yl]methanone]",77%,100%,Active,–,–,–,–,–
"Cc1cnc2c(C(=O)c3ccccc3)cnn2c1-c1ccncc1 [[6-methyl-7-(4-pyridinyl)pyrazolo[1,5-a]pyrimidin-3-yl]phenyl-methanone]",56%,100%,Active,–,–,–,–,–
"Cc1ccc(C(=O)c2cnn3c(-c4cccnc4)ccnc23)cc1 [(4-Methylphenyl)[7-(3-pyridinyl)pyrazolo[1,5-a]pyrimidin-3-yl]methanone]",56%,100%,Active,–,11.1 mg/kg,13.2 mg/kg,–,–
"O=C(c1ccccn1)c1cnn2c(-c3ccc(F)cc3)ccnc12 [[7-(4-fluorophenyl)pyrazolo[1,5-a]pyrimidin-3-yl]-2-pyridinyl-methanone]",64%,50%,Active,–,–,–,–,–
"O=C(c1ccccn1)c1cnn2c(-c3ccncc3)ccnc12 [2-pyridinyl[7-(4-pyridinyl)pyrazolo[1,5-a]pyrimidin-3-yl]methanone]",29%,100%,Active,–,–,101 mg/kg,–,–
"O=C(c1ccc(F)cc1)c1cnn2c(-c3ccc(F)cc3)ccnc12 [(4-fluorophenyl)[7-(4-fluorophenyl)pyrazolo[1,5-a]pyrimidin-3-yl]methanone]",34%,75%,Active,–,–,–,–,–
"O=C(c1cccs1)c1cnn2c(-c3cccc(C(F)(F)F)c3)ccnc12 [2-thienyl[7-[3-(trifluoromethyl)phenyl]pyrazolo[1,5-a]pyrimidin-3-yl]methanone]",99%,100%,Active,–,–,–,–,–
"O=C(c1ccncc1)c1cnn2c(-c3ccncc3)ccnc12 [4-pyridinyl[7-(4-pyridinyl)pyrazolo[1,5-a]pyrimidin-3-yl]methanone]",11%,–,Active,–,–,–,–,–
"O=C(c1ccccc1)c1cnn2c(-c3ccc(F)cc3)ccnc12 [[7-(4-fluorophenyl)pyrazolo[1,5-a]pyrimidin-3-yl]phenyl-methanone]",18%,100%,Active,–,–,–,–,–
"O=C(c1cccc(F)c1)c1cnn2c(-c3cccnc3)ccnc12 [(3-fluorophenyl)[7-(3-pyridinyl)pyrazolo[1,5-a]pyrimidin-3-yl]methanone]",20%,100%,Active,–,–,–,–,–
"O=C(c1ccccn1)c1cnn2c(-c3cccnc3)ccnc12 [2-Pyridinyl[7-(3-pyridinyl)pyrazolo[1,5-a]pyrimidin-3-yl]methanone]",98%,75%,Active,–,–,–,–,–
"O=C(c1ccc2c(c1)OCO2)c1cnn2c(-c3cccnc3)ccnc12 [1,3-benzodioxol-5-yl[7-(3-pyridinyl)pyrazolo[1,5-a]pyrimidin-3-yl]methanone]",–,50%,Active,–,–,–,–,–
